Where two headings read alike, the source gives them in different places.
Tests used:
Prostate (DU145) = test: IC50 in prostate cancer cells; format: cell-based; conditions: Homo sapiens, DU-145; Table 6
JAK2 = biological target: T1, JAK2 (Homo sapiens, UniProt O60674); test: HotSpot radiometric kinase assay, JAK2; format: biochemical; conditions: 5 uM compound, 10 μM ATP, duplicate (Data 1, Data 2); for remaining activity at 5 µM: read-out: % Enzyme activity relative to DMSO (control), JAK2
T1 construct: purchased Reaction Biology Corporation
Experimental: (§1) Briefly, this assay employs a radiometric detection system to measure kinase phosphoryl transfer activity.
(§2) Test compound was evaluated at a single dose of 5 μM in duplicate mode. […] Reactions were carried out at 10 μM ATP.
(§3) Preliminary screen against AKT, c-Src, ERK1, JaK1 and JaK2 was performed at Reaction Biology Corporation (www.reactionbiology.com, Malvern, Pa.) using the “HotSpot” assay platform. Specific kinase/substrate pairs along with their required cofactors were prepared in reaction buffer; 20 mM Hepes pH 7.5, 10 mM MgCl2, 1 mM EGTA, 0.02% Brij35, 0.02 mg/ml BSA, 0.1 mM Na3VO4, 2 mM DTT, 1% DMSO. The screen was completed in duplicate at a single concentration of 5 μM. The reaction well with the subject compound was treated with a mixture of ATP (Sigma, St. Louis Mo.) and ^33P ATP (Perkin Elmer, Waltham Mass.) to a final concentration of 10 μM. […] Reaction wells were kept at room temperature for 120 minutes, followed by spotting each of the reactions onto P81 ion exchange filter paper (Whatman Inc., Piscataway, N.J.). […] Background was subtracted using control reactions and the kinase activity data was expressed as the percent remaining kinase activity in test samples compared to vehicle (dimethyl sulfoxide) reactions. All IC50 values (table 3) and curve fitting were produced using Prism (GraphPad Software) (FIG. 5).

BTSC68EF = test: alamarBlue cell viability, BTSC 68EF; format: cell-based, human; conditions: Homo sapiens, read-out: 68EF IC50 (μM)
Procedure, shortened: (§4)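 Patient-derived GBM brain tumour stem cells, dissociated spheres seeded at 1500 cells/96-well, or 3000 cells/96-well in one setup. Drug or DMSO vehicle added one day after plating. Viability read by alamarBlue after 72 hrs, triplicate wells.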

c-Src = biological target: T2, c-Src (Homo sapiens, UniProt P12931); test: HotSpot radiometric kinase assay, c-Src; format: biochemical; conditions: 5 uM compound, 10 μM ATP, duplicate (Data 1, Data 2); for remaining activity at 5 µM: read-out: % Enzyme activity relative to DMSO (control), c-Src
T2 construct: purchased Reaction Biology Corporation
Experimental: as §1, §2, §3

BTSC73M = test: alamarBlue cell viability, BTSC 73M; format: cell-based, human; conditions: Homo sapiens
Procedure, shortened: as §4

BTSCs = test: alamarBlue cytotoxicity across BTSC lines; format: cell-based, human; conditions: Homo sapiens; for EC50: read-out: EC50s across all 8 BTSCs evaluated; for IC50: read-out: IC50 values of the top four ranked compounds against BTSCs
Experimental: First, the library was screened for biological activity against a set of three representative GBM BTSCs derived from GBM patients, including the very aggressive GBM BTSC lines, BTSC73M, BTSC30M, BTSC68EF. Dissociated BTSC spheres were seeded at 1500 cells/96-well and treated with drug compound or vehicle (DMSO) one day after plating. Cell viability following drug treatment was assessed after 72 hrs using the ALAMARBLUE™ assay (Invitrogen) according to the manufacturer's instructions. All culture experiments were performed in triplicate with a minimum of three wells per condition.
BTSC spheres were dissociated to single cells with the enzyme Accumax (Innovative Technologies), seeded at 1500 cells/96-well and treated with drug or vehicle (DMSO) one day after plating. […] BTSC spheres were dissociated to single cells as above and plated in 96 well plates in triplicate at 3000 cells/96-well. […] Cell viability following drug treatment was assessed three days later using the ALAMARBLUE™ assay (Invitrogen) according to the manufacturer's instructions. All culture experiments were performed in triplicate with a minimum of three wells per condition.

BTSC30M = test: alamarBlue cell viability, BTSC 30M; format: cell-based, human; conditions: Homo sapiens
Procedure, shortened: as §4

147EF = test: alamarBlue cell viability, BTSC 147EF; format: cell-based, human; conditions: Homo sapiens, Table 4 library screen
Procedure, shortened: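 Glioma stem-cell spheres were dissociated to single cells and plated at 1500 cells/well (3000 cells/well in the repeat set). Serial dilutions were added one day after plating: 5 μM–100 nM in the first set, 25 μM–10 nM in the second. Viability was read by alamarBlue three days later, in triplicate.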

ERK1 = biological target: T3, ERK1 (Homo sapiens, UniProt P27361); test: HotSpot radiometric kinase assay, ERK1; format: biochemical; conditions: 5 uM compound, 10 μM ATP, duplicate (Data 1, Data 2); for remaining activity at 5 µM: read-out: % Enzyme activity relative to DMSO (control), ERK1
T3 construct: purchased Reaction Biology Corporation

[1] = test system: leukemia cancer cells (AML-2); test: IC50 in leukemia cancer cells; format: cell-based; conditions: Table 6
AKT1 = biological target: T4, AKT1 (Homo sapiens, UniProt P31749); test: HotSpot radiometric kinase assay, AKT1; format: biochemical; conditions: 5 uM compound, 10 μM ATP, duplicate (Data 1, Data 2); for remaining activity at 5 µM: read-out: % Enzyme activity relative to DMSO (control), AKT1
T4 construct: purchased Reaction Biology Corporation

pSTAT3 (Y705) = test: Western blot of phosphorylated STAT3 in BTSCs; format: cell-based, human; conditions: for suppression of pSTAT3 (Y705): 1 μM
Source text: Blots were stained with antibodies: phospho-Y705, phospho-S727, Bcl-xL, cyclin D1, PARP and Actin. Bands were visualized with the ECL PLUS™ Western Blotting Detection System and […]™ (Amersham). […] BTSC spheres were lysed in modified RIPA buffer supplemented with Complete Mini protease (Roche) and Halt phosphatase (Thermo Scientific) inhibitor cocktails. […] Blots were stained with the following antibodies: phospho-STAT3 Y705 (1:1000, Cell Signalling Technology), phospho-STAT3 S727 (1:1000, Cell Signalling Technology), STAT3 (1:1000, Santa Cruz Biotechnology), Bcl-xL (1:1000, Cell Signalling Technology), cyclin D1 (1:1000, Cell Signalling Technology) PARP (1:1000, Cell Signalling Technology) and Actin (1:2500, Santa Cruz Biotechnology). HRP conjugated secondary antibodies, goat anti-rabbit (Cell Signalling Technology) were used at 1:2000 and donkey anti-mouse, donkey anti-goat, and goat anti-rabbit, (Calbiochem) were used at 1:6000. Bands were visualized with the ECL Plus Western Blotting Detection System and Hyperfilm (Amersham).

[2] = read-out: IC50 (nM) in BTSC 30M
[3] = remaining activity, listed as SH-05-07

T3 sequence (P27361 whole entry): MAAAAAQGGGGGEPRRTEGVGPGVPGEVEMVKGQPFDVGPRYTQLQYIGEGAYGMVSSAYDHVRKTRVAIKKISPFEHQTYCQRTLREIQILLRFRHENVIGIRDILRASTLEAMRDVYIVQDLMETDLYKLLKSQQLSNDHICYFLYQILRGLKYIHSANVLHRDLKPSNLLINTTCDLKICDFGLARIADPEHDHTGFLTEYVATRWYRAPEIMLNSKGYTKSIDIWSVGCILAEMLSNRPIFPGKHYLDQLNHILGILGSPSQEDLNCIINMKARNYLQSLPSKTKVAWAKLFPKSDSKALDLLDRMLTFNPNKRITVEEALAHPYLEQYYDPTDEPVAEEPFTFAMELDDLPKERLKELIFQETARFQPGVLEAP
T1 sequence (O60674 whole entry): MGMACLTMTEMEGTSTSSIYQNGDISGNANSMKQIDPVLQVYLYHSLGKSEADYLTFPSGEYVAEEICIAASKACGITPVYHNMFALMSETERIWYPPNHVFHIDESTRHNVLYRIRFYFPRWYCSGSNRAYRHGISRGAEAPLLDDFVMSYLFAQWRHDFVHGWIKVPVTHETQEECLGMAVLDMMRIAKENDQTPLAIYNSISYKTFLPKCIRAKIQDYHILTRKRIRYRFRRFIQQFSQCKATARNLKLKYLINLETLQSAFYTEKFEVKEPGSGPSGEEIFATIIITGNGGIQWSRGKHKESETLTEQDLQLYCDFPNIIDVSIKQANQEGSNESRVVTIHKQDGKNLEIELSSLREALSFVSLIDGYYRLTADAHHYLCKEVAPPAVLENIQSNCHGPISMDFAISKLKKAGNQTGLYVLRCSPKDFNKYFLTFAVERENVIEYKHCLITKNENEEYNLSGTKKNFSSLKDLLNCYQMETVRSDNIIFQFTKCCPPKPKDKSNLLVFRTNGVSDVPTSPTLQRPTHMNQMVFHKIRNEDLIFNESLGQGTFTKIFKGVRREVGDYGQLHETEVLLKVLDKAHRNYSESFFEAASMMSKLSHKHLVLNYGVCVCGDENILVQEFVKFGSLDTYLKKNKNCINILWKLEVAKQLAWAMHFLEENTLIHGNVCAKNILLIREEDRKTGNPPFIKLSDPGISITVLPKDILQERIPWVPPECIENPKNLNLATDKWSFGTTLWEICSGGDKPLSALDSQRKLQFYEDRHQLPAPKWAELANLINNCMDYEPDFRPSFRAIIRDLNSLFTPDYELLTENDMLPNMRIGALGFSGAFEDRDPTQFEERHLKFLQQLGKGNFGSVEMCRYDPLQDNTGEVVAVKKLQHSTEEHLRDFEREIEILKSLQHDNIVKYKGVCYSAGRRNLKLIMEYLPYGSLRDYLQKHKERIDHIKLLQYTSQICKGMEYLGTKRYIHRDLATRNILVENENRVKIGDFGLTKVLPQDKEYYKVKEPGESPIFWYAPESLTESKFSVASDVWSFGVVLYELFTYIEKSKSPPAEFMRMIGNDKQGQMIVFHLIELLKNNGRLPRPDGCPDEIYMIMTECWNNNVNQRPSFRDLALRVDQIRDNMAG
T2 sequence (P12931 whole entry): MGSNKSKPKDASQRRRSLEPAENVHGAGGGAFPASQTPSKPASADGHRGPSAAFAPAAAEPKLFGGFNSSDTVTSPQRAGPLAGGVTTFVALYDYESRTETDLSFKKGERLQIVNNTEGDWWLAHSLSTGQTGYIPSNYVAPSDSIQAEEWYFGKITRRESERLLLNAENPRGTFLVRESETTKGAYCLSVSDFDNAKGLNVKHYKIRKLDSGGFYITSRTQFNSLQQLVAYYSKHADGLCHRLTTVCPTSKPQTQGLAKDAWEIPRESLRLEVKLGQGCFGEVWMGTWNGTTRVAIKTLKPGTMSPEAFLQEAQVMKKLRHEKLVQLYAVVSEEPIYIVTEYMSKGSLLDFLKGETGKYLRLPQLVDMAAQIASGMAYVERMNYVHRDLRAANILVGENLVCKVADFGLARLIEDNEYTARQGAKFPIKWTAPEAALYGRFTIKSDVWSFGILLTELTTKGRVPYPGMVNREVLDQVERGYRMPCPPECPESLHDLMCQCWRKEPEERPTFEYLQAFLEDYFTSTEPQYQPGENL
T4 sequence (P31749 whole entry): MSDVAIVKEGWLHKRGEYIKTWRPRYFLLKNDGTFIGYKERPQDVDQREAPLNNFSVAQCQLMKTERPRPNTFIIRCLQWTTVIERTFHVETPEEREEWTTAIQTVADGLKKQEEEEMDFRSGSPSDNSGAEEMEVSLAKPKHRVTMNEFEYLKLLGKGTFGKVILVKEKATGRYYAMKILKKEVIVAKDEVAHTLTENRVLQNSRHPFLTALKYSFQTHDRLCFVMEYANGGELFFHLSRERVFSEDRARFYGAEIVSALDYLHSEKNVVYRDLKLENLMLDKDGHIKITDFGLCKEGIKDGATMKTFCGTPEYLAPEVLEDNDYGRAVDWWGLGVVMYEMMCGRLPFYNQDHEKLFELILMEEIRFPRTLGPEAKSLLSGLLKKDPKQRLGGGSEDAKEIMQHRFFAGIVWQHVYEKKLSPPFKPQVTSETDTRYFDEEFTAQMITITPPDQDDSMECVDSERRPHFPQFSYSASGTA

Row | Structure (SMILES) | IC50 (Prostate (DU145)) | remaining activity at 5 µM (JAK2) | IC50 (BTSC68EF) | remaining activity at 5 µM (c-Src) | EC50 (BTSCs) | IC50 (BTSCs) | IC50 (BTSC30M; [2]) | IC50 (147EF) | remaining activity at 5 µM (ERK1) | IC50 [1] | remaining activity at 5 µM (AKT1) | suppression of pSTAT3 (Y705) (pSTAT3 (Y705); Western blot, BTSCs) | other results
1 | CN(CC(=O)N(Cc1ccc(C2CCCCC2)cc1)c1ccc(C(=O)O)cc1)S(=O)(=O)c1c(F)c(F)c(F)c(F)c1F [Compound 31, 4-(N-(4-cyclohexylbenzyl)-2-(2,3,4,5,6-pentafluoro-N-methylphenylsulfonamido)acetamido)benzoic acid] | 11300 nM | 62% | 0.531 µM | 50.8% | 66 to 1140 nM | 100 to 3800 nM | 0.432 ± 0.022 µM | 315 nM | 111% | < 1000 nM | 92.1% | most suppression of pSTAT3 (Y705) | IC50 (BTSC73M; Table 2, BTSC 73M, alamarBlue, 72 hrs, read-out: IC50 (μM) 73M): 1.03 ± 0.031 µM; IC50 (BTSC73M; Table 4 library screen, alamarBlue, read-out: 73M IC50): 1.03 µM; IC50 (BTSC30M; read-out: 30M IC50 (μM), Table 4 library screen, alamarBlue): 0.432 µM; IC50 (BTSC30M; read-out: IC50 (μM) 30M, Table 2, BTSC 30M, alamarBlue, 72 hrs): 0.432 ± 0.022 µM; IC50 (BTSC30M; read-out: IC50 BTSC 30M, Table 6, in parallel with other cancer lines): 0.5 µM; pSTAT3 inhibition potency (pSTAT3 (Y705); 0, 0.1, 0.5, 1.0 and 5.0 μM, Western blot): concentration-dependant decreases in pSTAT3 levels; pSTAT3 signalling (pSTAT3 (Y705); 500 nM, Western blot, BTSCs): completely silenced pSTAT3 signalling; pSTAT3 suppression, comparative Western blot (pSTAT3 (Y705); BTSC 73M, 1 μM inhibitor): equipotent pSTAT3 suppression
2 | CN(CC(=O)N(Cc1ccc(C2CCCCC2)cc1)c1ccc(C(=O)NO)cc1)S(=O)(=O)c1c(F)c(F)c(F)c(F)c1F [Compound 32, 4-(N-(4-cyclohexylbenzyl)-2-(2,3,4,5,6-pentafluoro-N-methylphenylsulfonamido)acetamido)-N-hydroxybenzamide] | 15900 nM | 67.1% | ~1.01 µM | 58.3% | 66 to 1140 nM | 100 to 3800 nM | 1.136 ± 0.009 µM | 588 nM | 110% | < 1000 nM | 94.6% | most suppression of pSTAT3 (Y705) | % Enzyme activity relative to DMSO (control), JAK2 (JAK2; [3]): 61.26%; % Enzyme activity relative to DMSO (control), c-Src (c-Src; [3]): 54.21%; IC50 (BTSC73M; read-out: 73M IC50 (μM)): 1.52 µM; IC50 (BTSC30M; read-out: 30M IC50 (μM)): 1.14 µM; IC50 (BTSC30M; read-out: IC50 BTSC 30M): 0.971 µM; % Enzyme activity relative to DMSO (control), ERK1 (ERK1; [3]): 106.21%; % Enzyme activity relative to DMSO (control), AKT1 (AKT1; [3]): 92.09%

From patent US9650399B2, “Salicylic acid derivatives, pharmaceutically acceptable salt thereof, composition thereof and method of use thereof” (The Governing Council of the University of Toronto, priority 2012, dated 2017)
